Results as given in patent US20260028326A1, “COMPOUND BASED ON ISOINDOLINE-SUBSTITUTED GLUTARIMIDE BACKBONE AND USE THEREOF” (GLUETACS THERAPEUTICS (SHANGHAI) CO., LTD., priority 2022, published 2026).

Tests used:
[1] = biological target: human Cereblon WT GST-tagged protein (Homo sapiens (Human), UniProt Q96SW2); test: CRBN-binding affinity, HTRF (CEREBLON BINDING kit)
How it was run: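 HTRF competition readout: compounds compete with a thalidomide-Re conjugate for GST-tagged wild-type human CRBN detected via Eu-labelled anti-GST antibody. Inhibition rate derived relative to protein-free blank wells.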

[2] = biological target: IKZF1 protein (Homo sapiens (Human), UniProt Q13422+Q96SW2); test: Western-blot assay of substrate protein degradation in hPBMC, IKZF1; type: cell-based; settings: for residual substrate protein level, IKZF1: hPBMC cells, compound 500 nM, 24 hours, Western blot
[3] = biological target: IKZF3 protein (Homo sapiens (Human), UniProt Q96SW2+Q9UKT9); test: Western-blot assay of substrate protein degradation in hPBMC, IKZF3; type: cell-based; settings: for residual substrate protein level, IKZF3: hPBMC cells, compound 500 nM, 24 hours, Western blot
[4] = biological target: GSPT1 protein (Homo sapiens (Human), UniProt P15170+Q96SW2); test: Western-blot assay of substrate protein degradation in hPBMC, GSPT1; type: cell-based; settings: for residual substrate protein level, GSPT1: hPBMC cells, compound 500 nM, 24 hours, Western blot
[5] = tested on: Mino cells; test: Tumor cell proliferation IC50 (CCK-8), Mino; settings: Homo sapiens, 72 h, read-out: IC50 for inhibiting the proliferation of tumor cells, Mino;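 further: cell viability assessed with CCK-8 reagent after compound exposure, IC50 derived from plotted growth inhibition curves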
[6] = tested on: MM.1S cells; test: Tumor cell proliferation IC50 (CCK-8), MM.1S; settings: Homo sapiens, MM1.S, 72 h, read-out: IC50 for inhibiting the proliferation of tumor cells, MM.1S;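 further: viability of cultured cells read by CCK-8 reagent after compound exposure, growth inhibition curves fitted to derive IC50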
[7] = tested on: Daudi cells; test: Tumor cell proliferation IC50 (CCK-8), Daudi; settings: Homo sapiens, read-out: IC50 for inhibiting the proliferation of tumor cells, Daudi;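 further: cell viability read with CCK-8 reagent after compound exposure of Daudi cells, IC50 derived from plotted growth inhibition curves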
[8] = tested on: CCRF-CEM cells; test: Tumor cell proliferation IC50 (CCK-8), CCRF-CEM; settings: Homo sapiens, 96 h, read-out: IC50 for inhibiting the proliferation of tumor cells, CCRF-CEM;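 further: cell viability measured with CCK-8 reagent after compound treatment, IC50 taken from plotted growth inhibition curves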
[9] = hPBMC, 24 h, serially diluted 0.03-1000 nM

Sequence of IKZF1 protein (Q13422 whole entry): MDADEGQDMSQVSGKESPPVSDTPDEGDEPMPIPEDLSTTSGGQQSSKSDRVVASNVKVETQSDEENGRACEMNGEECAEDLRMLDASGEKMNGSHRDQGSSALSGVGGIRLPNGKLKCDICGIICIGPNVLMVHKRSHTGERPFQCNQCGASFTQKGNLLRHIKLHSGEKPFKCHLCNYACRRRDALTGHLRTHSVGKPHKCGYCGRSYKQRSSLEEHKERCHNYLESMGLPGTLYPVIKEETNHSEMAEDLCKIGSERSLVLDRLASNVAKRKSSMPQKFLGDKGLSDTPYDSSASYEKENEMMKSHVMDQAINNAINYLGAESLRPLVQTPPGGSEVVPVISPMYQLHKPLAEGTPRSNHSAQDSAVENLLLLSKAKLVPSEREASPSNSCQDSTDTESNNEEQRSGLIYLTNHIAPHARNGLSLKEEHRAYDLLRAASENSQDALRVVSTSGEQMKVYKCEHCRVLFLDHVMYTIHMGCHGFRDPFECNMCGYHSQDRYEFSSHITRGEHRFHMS
Sequence of IKZF1 protein (Q96SW2 whole entry): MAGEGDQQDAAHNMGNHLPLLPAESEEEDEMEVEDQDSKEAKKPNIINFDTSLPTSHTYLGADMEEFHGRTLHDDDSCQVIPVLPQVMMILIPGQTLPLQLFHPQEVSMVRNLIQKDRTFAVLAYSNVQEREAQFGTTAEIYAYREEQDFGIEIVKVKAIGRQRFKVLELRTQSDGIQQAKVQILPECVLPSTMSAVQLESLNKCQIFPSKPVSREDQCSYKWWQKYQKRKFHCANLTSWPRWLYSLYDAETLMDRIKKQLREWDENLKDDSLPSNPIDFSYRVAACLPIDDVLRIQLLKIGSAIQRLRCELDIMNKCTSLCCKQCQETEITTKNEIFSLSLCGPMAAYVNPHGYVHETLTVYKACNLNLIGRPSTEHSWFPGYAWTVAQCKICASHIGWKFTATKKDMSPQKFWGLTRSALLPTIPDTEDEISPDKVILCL
Sequence of IKZF1 protein (Q16531 whole entry partner): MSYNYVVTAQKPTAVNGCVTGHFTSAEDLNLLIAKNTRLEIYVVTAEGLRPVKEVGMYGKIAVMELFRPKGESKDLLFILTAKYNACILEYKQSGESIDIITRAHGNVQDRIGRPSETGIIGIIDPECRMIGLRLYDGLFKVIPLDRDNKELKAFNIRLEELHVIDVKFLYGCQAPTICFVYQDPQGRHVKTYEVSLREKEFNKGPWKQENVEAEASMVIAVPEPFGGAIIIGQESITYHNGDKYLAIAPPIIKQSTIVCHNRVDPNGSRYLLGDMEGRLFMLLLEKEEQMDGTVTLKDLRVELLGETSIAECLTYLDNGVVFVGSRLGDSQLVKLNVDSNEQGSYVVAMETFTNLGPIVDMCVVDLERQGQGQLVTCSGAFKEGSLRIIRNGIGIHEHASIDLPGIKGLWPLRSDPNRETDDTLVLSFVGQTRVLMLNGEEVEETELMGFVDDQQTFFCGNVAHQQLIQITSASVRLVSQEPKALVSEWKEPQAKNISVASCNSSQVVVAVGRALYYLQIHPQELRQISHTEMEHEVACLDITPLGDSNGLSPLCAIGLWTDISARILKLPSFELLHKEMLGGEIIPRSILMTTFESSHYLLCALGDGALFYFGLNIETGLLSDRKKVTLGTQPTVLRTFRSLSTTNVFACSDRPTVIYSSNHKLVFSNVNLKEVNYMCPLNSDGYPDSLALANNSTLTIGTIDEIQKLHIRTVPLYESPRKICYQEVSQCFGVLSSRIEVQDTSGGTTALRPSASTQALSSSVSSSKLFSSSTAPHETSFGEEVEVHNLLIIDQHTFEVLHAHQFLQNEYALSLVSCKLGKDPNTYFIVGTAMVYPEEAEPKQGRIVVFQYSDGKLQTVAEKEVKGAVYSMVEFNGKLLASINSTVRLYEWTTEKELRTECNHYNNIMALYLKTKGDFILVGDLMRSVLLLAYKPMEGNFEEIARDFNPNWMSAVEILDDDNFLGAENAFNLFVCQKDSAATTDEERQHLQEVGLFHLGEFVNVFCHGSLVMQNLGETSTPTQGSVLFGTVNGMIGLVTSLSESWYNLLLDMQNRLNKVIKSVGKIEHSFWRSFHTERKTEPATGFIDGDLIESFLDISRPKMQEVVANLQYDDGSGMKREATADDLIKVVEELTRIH
Sequence of GSPT1 protein (P15170 whole entry): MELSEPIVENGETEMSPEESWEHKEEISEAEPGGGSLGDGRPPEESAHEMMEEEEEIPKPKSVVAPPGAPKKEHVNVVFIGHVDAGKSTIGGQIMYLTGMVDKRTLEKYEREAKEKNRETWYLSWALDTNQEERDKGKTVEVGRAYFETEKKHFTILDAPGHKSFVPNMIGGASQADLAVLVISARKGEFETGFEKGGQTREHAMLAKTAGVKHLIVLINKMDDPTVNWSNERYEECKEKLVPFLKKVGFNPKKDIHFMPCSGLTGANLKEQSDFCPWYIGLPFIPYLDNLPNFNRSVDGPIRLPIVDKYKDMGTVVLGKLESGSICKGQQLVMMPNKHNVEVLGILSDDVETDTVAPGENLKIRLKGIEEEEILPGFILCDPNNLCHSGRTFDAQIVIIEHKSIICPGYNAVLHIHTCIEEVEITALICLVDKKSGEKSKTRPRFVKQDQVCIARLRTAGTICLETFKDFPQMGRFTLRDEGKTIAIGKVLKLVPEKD
Sequence of GSPT1 protein (Q96SW2 whole entry): as the sequence (Q96SW2 whole entry) above
Sequence of GSPT1 protein (Q16531 whole entry partner): as the sequence (Q16531 whole entry partner) above
Sequence of IKZF3 protein (Q9UKT9 whole entry): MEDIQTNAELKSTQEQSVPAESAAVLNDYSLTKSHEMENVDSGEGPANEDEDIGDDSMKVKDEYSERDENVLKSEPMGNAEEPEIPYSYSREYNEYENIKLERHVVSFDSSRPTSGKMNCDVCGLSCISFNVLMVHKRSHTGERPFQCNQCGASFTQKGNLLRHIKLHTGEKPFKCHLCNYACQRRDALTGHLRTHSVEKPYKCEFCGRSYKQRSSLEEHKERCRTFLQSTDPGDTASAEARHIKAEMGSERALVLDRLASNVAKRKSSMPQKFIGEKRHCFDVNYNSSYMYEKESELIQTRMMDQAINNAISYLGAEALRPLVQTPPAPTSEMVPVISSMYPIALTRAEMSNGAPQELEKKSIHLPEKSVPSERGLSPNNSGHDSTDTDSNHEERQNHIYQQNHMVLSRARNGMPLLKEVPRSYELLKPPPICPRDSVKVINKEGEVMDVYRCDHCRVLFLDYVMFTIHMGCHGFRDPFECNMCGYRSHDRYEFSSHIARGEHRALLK
Sequence of IKZF3 protein (Q96SW2 whole entry): as the sequence (Q96SW2 whole entry) above
Sequence of IKZF3 protein (Q16531 whole entry partner): as the sequence (Q16531 whole entry partner) above
Sequence of human Cereblon WT GST-tagged protein (Q96SW2 whole entry): as the sequence (Q96SW2 whole entry) above

| SMILES | IC50 [1] [µM] | IC50 [5] [µM] | IC50 [6] [µM] | IC50 [7] [µM] | IC50 [8] [µM] | concentration at which significant degradation effects on IKZF1 protein are exhibited (FIG. 1) [2, 9] [nM] | concentration at which significant degradation effects on IKZF3 protein are exhibited (FIG. 1) [3, 9] [nM] | concentration at which significant degradation effects on GSPT1 protein are exhibited (FIG. 1) [4, 9] [nM] | residual substrate protein level, IKZF1 [2] | residual substrate protein level, IKZF3 [3] | residual substrate protein level, GSPT1 [4] |
| --- | --- | --- | --- | --- | --- | --- | --- | --- | --- | --- | --- |
| O=C1CCC(N2Cc3cc(CN4CCN(Cc5ccc(-c6ccc(Cl)cc6)cc5)CC4)ccc3C2=O)C(=O)N1 (centres unmarked) [GT-05598, 3-(5-((4-((4′-chloro-[1,1′-biphenyl]-4-yl)methyl)piperazin-1-yl)methyl)-1-oxoisoindolin-2-yl)piperidine-2,6-dione] | 0.68 | 0.01 to 0.05 | 0.05 to 0.1 | 0.5 to 1 | 0.5 to 1 | < 3 | < 3 | < 3 | A (A represents a residual substrate protein level of <50%) | A (A represents a residual substrate protein level of <50%) | B (B represents a residual substrate protein level of >50%) |
| CC1(C)CCC(C(=O)N2CC3(CN(Cc4ccc5c(c4)CN(C4CCC(=O)NC4=O)C5=O)C3)C2)=C(c2ccc(F)cc2)C1 (centres unmarked) [GT-05664, 3-(5-((6-(4′-fluoro-5,5-dimethyl-3,4,5,6-tetrahydro-[1,1′-biphenyl]-2-carbonyl)-2,6-diazaspiro[3.3]heptan-2-yl)methyl)-1-oxoisoindolin-2-yl)piperidine-2,6-dione] | 0.56 | 0.01 to 0.05 | 0.01 to 0.05 | 0.1 to 0.5 | 0.01 to 0.05 |  |  |  | A (A represents a residual substrate protein level of <50%) | A (A represents a residual substrate protein level of <50%) | A (A represents a residual substrate protein level of <50%) |
| O=C1CCC(N2Cc3cc(CN4CCN(Cc5ncccc5-c5ccc(Cl)cc5)CC4)ccc3C2=O)C(=O)N1 (centres unmarked) [GT-05778, 3-(5-((4-((3-(4-chlorophenyl)pyridin-2-yl)methyl)piperazin-1-yl)methyl)-1-oxoisoindolin-2-yl)piperidine-2,6-dione] | 0.56 | < 0.005 | < 0.005 | 0.005 to 0.01 | < 0.005 |  |  |  | A (A represents a residual substrate protein level of <50%) | A (A represents a residual substrate protein level of <50%) | A (A represents a residual substrate protein level of <50%) |
| O=C1CCC(N2Cc3cc(CN4CCN(C(=O)c5ccccc5-c5ccc(Cl)cc5)CC4C(F)(F)F)ccc3C2=O)C(=O)N1 (centres unmarked) [GT-05789, 3-(5-((4-(4′-chloro-[1,1′-biphenyl]-2-carbonyl)-2-(trifluoromethyl)piperazin-1-yl)methyl)-1-oxoisoindolin-2-yl)piperidine-2,6-dione] | 0.52 | 0.01 to 0.05 | 0.01 to 0.05 | 0.1 to 0.5 | 0.01 to 0.05 |  |  |  | B (B represents a residual substrate protein level of >50%) | B (B represents a residual substrate protein level of >50%) | A (A represents a residual substrate protein level of <50%) |
| CC1(C)CCC(CN2CCN(Cc3ccc4c(c3)CN(C3CCC(=O)NC3=O)C4=O)CC2)=C(c2cccs2)C1 (centres unmarked) [GT-05847, 3-(5-((4-((4,4-dimethyl-2-(thiophen-2-yl)cyclohex-1-en-1-yl)methyl)piperazin-1-yl)methyl)-1-oxoisoindolin-2-yl)piperidine-2,6-dione] | 1 | < 0.005 | < 0.005 | 0.01 to 0.05 | < 0.005 |  |  |  | A (A represents a residual substrate protein level of <50%) | A (A represents a residual substrate protein level of <50%) | A (A represents a residual substrate protein level of <50%) |

Second part, led by results:

| IC50 [1] [µM] | IC50 [5] [µM] | IC50 [6] [µM] | IC50 [7] [µM] | IC50 [8] [µM] | concentration at which significant degradation effects on IKZF1 protein are exhibited (FIG. 1) [2, 9] [nM] | concentration at which significant degradation effects on IKZF3 protein are exhibited (FIG. 1) [3, 9] [nM] | concentration at which significant degradation effects on GSPT1 protein are exhibited (FIG. 1) [4, 9] [nM] | SMILES | residual substrate protein level, IKZF1 [2] | residual substrate protein level, IKZF3 [3] | residual substrate protein level, GSPT1 [4] |
| --- | --- | --- | --- | --- | --- | --- | --- | --- | --- | --- | --- |
| 0.41 | < 0.005 | < 0.005 | 0.005 to 0.01 | < 0.005 |  |  |  | O=C1CCC(N2Cc3cc(CN4CCN(Cc5ccccc5-c5cccs5)CC4)ccc3C2=O)C(=O)N1 (centres unmarked) [GT-05519, 3-(1-oxo-5-((4-(2-(thiophen-2-yl)benzyl)piperazin-1-yl)methyl)isoindolin-2-yl)piperidine-2,6-dione] | A (A represents a residual substrate protein level of <50%) | A (A represents a residual substrate protein level of <50%) | A (A represents a residual substrate protein level of <50%) |
| 0.56 | < 0.005 | < 0.005 | 0.005 to 0.01 | < 0.005 |  |  |  | O=C1CCC(N2Cc3c(ccc(CN4CCN(Cc5ccccc5-c5ccc(F)cc5)CC4)c3F)C2=O)C(=O)N1 (centres unmarked) [GT-05602, 3-(4-fluoro-5-((4-((4′-fluoro-[1,1′-biphenyl]-2-yl)methyl)piperazin-1-yl)methyl)-1-oxoisoindolin-2-yl)piperidine-2,6-dione] | A (A represents a residual substrate protein level of <50%) | A (A represents a residual substrate protein level of <50%) | A (A represents a residual substrate protein level of <50%) |
| 0.94 | < 0.005 | < 0.005 | 0.005 to 0.01 | 0.0025 |  |  |  | O=C1CCC(N2Cc3cc(CN4CCN(Cc5ccccc5-c5ccc(F)cc5)CC4)c(F)cc3C2=O)C(=O)N1 (centres unmarked) [GT-05603, 3-(6-fluoro-5-((4-((4′-fluoro-[1,1′-biphenyl]-2-yl)methyl)piperazin-1-yl)methyl)-1-oxoisoindolin-2-yl)piperidine-2,6-dione] | A (A represents a residual substrate protein level of <50%) | A (A represents a residual substrate protein level of <50%) | A (A represents a residual substrate protein level of <50%) |
| 0.94 | 0.05 to 0.1 | 0.01 to 0.05 | 0.1 to 0.5 | 0.01 to 0.05 |  |  |  | O=C1CCC(N2Cc3cc(CN4CCN(C(=O)c5ccccc5-c5ccc(Cl)cc5)CC4)c(F)cc3C2=O)C(=O)N1 (centres unmarked) [GT-05650, 3-(5-((4-(4′-chloro-[1,1′-biphenyl]-2-carbonyl)piperazin-1-yl)methyl)-6-fluoro-1-oxoisoindolin-2-yl)piperidine-2,6-dione] | A (A represents a residual substrate protein level of <50%) | A (A represents a residual substrate protein level of <50%) | A (A represents a residual substrate protein level of <50%) |
| 0.43 | 0.005 to 0.01 | 0.005 to 0.01 | 0.05 to 0.1 | 0.005 to 0.01 |  |  |  | O=C1CCC(N2Cc3cc(CN4CCN(Cc5ccccc5-c5ccco5)CC4)ccc3C2=O)C(=O)N1 (centres unmarked) [GT-05779, 3-(5-((4-(2-(furan-2-yl)benzyl)piperazin-1-yl)methyl)-1-oxoisoindolin-2-yl)piperidine-2,6-dione] | A (A represents a residual substrate protein level of <50%) | A (A represents a residual substrate protein level of <50%) | A (A represents a residual substrate protein level of <50%) |
